# How the values were obtained:
# MCF-7 cells = test: Inhibition of MCF-7 cell proliferation (CellTiter-Glo cell viability); assay type: cell-based; details: Homo sapiens, MCF7, 144 h, 6 days treatment, 1 pM to 10 µM
# Method: ERα-positive human breast cancer cells MCF-7 (ATCC, HTB-22) were cultured with EMEM medium (ATCC, catalog number 30-2003) containing 10% fetal bovine serum (Thermo Fisher, catalog number 10099141) and 10 µg/mL bovine insulin in 25 cm^2 or 75 cm^2 plastic tissue culture flasks in a 37 °C incubator with 5% CO2. The cells were passaged 2 to 3 times per week.
# MCF-7 cells were seeded in 96-well plate at 3×10^3 cells/well with 90 µL culture medium per well, and cultured in a 37 °C incubator with 95% air and 5% CO2. After 24 hours, the test compounds were added: the compounds were serially diluted 10-fold in DMSO starting from 10 mM (dissolved in DMSO) to prepare gradient stock solutions. A complete culture medium containing 1% DMSO was prepared for further dilution, temporarily named as the "dilution buffer." Working solutions were prepared by diluting each stock solution with 99 times the volume of dilution buffer, that is, by adding 1 µL of the 10 mM stock solution to 99 µL of the dilution buffer and mixing thoroughly. Finally, 10 µL of the working solution was added to the cell-seeded culture plate. The final concentration of DMSO in the cell culture medium was 0.2%, and the final concentration of the test compounds ranged from 1 pM to 10 µM. The cells were then incubated at 37 °C for 3 days. The culture medium was removed and replaced with 90µL per well of fresh medium. According to the above compound dilution method, the test compounds were added again. On the 6th day, the CellTiter Glo luminescent cell viability assay kit (Promag, item number G7573) was added for cell viability measurement.
# Cell viability was measured using the CellTiter-Glo assay kit, and the half-maximal growth inhibitory concentration (GI50) of the compounds was calculated using the Prism software.
# The GI50 values (i.e., the concentration of the test compounds required to inhibit 50% of the cell proliferation) were calculated and shown in Table 2. A corresponds to a GI50 value below 10 nM, B corresponds to a GI50 value greater than 10 nM and less than 100 nM, and C corresponds to GI50 values greater than 100 nM. Table 2. The GI50 values of exemplary compounds in MCF-7 cells
# ERα = target: T1, ERα (Homo sapiens, UniProt P03372); test: ER degradation activity in MCF-7 cells (Western blot, grayscale intensity); assay type: cell-based; details: 6 hours treatment, 1 nM to 100 nM, concentration required to degrade 50% of the target protein
# T1 construct: host or cells: MCF-7
# T1 sequence (P03372 1-595): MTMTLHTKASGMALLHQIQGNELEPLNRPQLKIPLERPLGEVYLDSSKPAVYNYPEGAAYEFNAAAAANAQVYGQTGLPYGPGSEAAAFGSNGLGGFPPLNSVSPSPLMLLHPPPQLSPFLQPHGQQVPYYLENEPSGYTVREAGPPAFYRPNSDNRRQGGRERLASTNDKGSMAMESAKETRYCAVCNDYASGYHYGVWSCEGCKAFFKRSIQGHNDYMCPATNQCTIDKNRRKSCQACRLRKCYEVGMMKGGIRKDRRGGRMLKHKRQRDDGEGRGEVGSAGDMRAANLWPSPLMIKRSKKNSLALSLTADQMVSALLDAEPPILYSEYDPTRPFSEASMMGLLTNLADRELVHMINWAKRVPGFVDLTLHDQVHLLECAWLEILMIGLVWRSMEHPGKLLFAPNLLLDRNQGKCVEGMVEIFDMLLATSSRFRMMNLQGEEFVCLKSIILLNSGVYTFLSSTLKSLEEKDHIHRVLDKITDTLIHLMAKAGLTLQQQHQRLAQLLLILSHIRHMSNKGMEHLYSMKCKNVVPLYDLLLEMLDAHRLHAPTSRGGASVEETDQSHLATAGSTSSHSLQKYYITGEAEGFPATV
# Method in brief: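 MCF-7 cells were treated 24 h after seeding with test compounds at 1 nM to 100 nM final (0.2% DMSO) for 6 h at 37 °C. ERα in lysates (30 µg protein) was detected by Western blot with ECL; degradation was quantified from band grayscale intensity and DC50 derived.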
Compound,GI50 (MCF-7 cells) [nM],DC50 (ERα) [nM]
CC1(C)CC(=C(c2ccc(N3CCC(CN4CCN(c5ccc6c(c5)CN(C5CCC(=O)NC5=O)C6=O)CC4)CC3)nc2)c2ccc3[nH]nc(F)c3c2)CC(C)(C)O1 (racemic) [Compound 34],< 10,< 10
CC1(C)CC(=C(c2ccc(N3CCC4(CC3)CC(N3CCN(c5ccc6c(c5)CN(C5CCC(=O)NC5=O)C6=O)CC3)C4)nc2)c2ccc3[nH]nc(F)c3c2)CC(C)(C)O1 (racemic) [Compound 35],< 10,< 10
CC1(C)CC(=C(c2ccc(N3CCC(N4CCN(c5ccc6c(c5)CN(C5CCC(=O)NC5=O)C6=O)CC4)CC3)cc2)c2ccc3[nH]nc(F)c3c2)CC(C)(C)O1 (centres unmarked) [Compound 37],< 10,10 to 100
CC1(C)CC(=C(c2ccc(N3CC4(CCN(C5CCN(c6ccc7c(c6)CN(C6CCC(=O)NC6=O)C7=O)CC5)CC4)C3)nc2)c2ccc3[nH]nc(F)c3c2)CC(C)(C)O1 (centres unmarked) [Compound 46],< 10,< 10
CC1(C)CC(=C(c2ccc(N3CCC(CN4CCN(c5ccc6c(c5)C(=O)N(C5CCC(=O)NC5=O)C6=O)CC4)CC3)cc2)c2ccc3[nH]ncc3c2)CC(C)(C)O1 (centres unmarked) [Compound 5],< 10,< 10
CC1(C)CC(=C(c2ccc(N3CCC4(CC3)CC(N3CCN(c5ccc6c(c5)CN([C@@H]5CCC(=O)NC5=O)C6=O)CC3)C4)nc2)c2ccc3[nH]nc(F)c3c2)CC(C)(C)O1 [Compound 121],< 10,< 10
CC1(C)CC(=C(c2ccc(N3CCC(CN4CCN(c5ccc6c(c5)CN([C@@H]5CCC(=O)NC5=O)C6=O)CC4)CC3)nc2)c2ccc3[nH]nc(F)c3c2)CC(C)(C)O1 [Compound 119],< 10,< 10
CC1(C)CC(=C(c2ccc(N3CCC(CNC4CCN(c5ccc6c(c5)CN(C5CCC(=O)NC5=O)C6=O)CC4)CC3)nc2)c2ccc3[nH]nc(F)c3c2)CC(C)(C)O1 (centres unmarked) [Compound 44],< 10,< 10
CC1(C)CC(=C(c2ccc(N3CCC(F)(CNC4CCN(c5ccc6c(c5)CN(C5CCC(=O)NC5=O)C6=O)CC4)CC3)nc2)c2ccc3[nH]nc(F)c3c2)CC(C)(C)O1 (centres unmarked) [Compound 48],< 10,< 10
CC1(C)CC(=C(c2ccc(N3CCC(N4CCN(c5ccc6c(c5)C(=O)N(C5CCC(=O)NC5=O)C6=O)CC4)CC3)cc2)c2ccc3[nH]nc(F)c3c2)CC(C)(C)O1 (centres unmarked) [Compound 31],< 10,< 10
CC1(C)CC(=C(c2ccc(N3CC4(CC(N5CCN(c6ccc7c(c6)CN(C6CCC(=O)NC6=O)C7=O)CC5)C4)C3)nc2)c2ccc3[nH]nc(F)c3c2)CC(C)(C)O1 (centres unmarked) [Compound 50],,> 100
CC1(C)CC(=C(c2ccc(N3CCC4(CC3)CC(CN3CCN(c5ccc6c(c5)CN(C5CCC(=O)NC5=O)C6=O)CC3)C4)nc2)c2ccc3[nH]nc(F)c3c2)CC(C)(C)O1 (centres unmarked) [Compound 54],,> 100
CC1(C)CC(=C(c2ccc(OC3CN(C4CCN(c5ccc6c(c5)C(=O)N(C5CCC(=O)NC5=O)C6=O)CC4)C3)nc2)c2ccc3[nH]nc(F)c3c2)CC(C)(C)O1 (centres unmarked) [Compound 18],,> 100
CC1(C)CC(=C(c2ccc3[nH]nc(F)c3c2)c2c(F)cc(OC3CN(C4CCN(c5ccc6c(c5)C(=O)N(C5CCC(=O)NC5=O)C6=O)CC4)C3)cc2F)CC(C)(C)O1 (centres unmarked) [Compound 25],,> 100
CC1(C)CC(=C(c2ccc(N3CCC(F)(CNC4CCN(c5ccc6c(c5)CN(C5CCC(=O)NC5=O)C6=O)CC4)CC3)nc2)c2ccc3[nH]nc(F)c3c2)CC(C)(C)O1 (centres unmarked) [Compound 61],,< 10
CC1(C)CC(=C(c2ccc(N3CCC(CN4CCN(c5ccc(NC6CCC(=O)NC6=O)c(F)c5)CC4)CC3)cc2)c2ccc3[nH]nc(F)c3c2)CC(C)(C)O1 (centres unmarked) [Compound 115],,> 100
CC1(C)CC(=C(c2ccc(N3CCC(CN4CCN(c5ccc6c(c5)CN(C5CCC(=O)NC5=O)C6=O)CC4)CC3)nc2)c2ccc3cncn3c2)CC(C)(C)O1 (centres unmarked) [Compound 113],,> 100
CC1(C)CC(=C(c2ccc(N3CCC(CN4CCN(c5ccc6c(c5)CN(C5CCC(=O)NC5=O)C6=O)CC4)CC3)nc2)c2cccc(O)c2)CC(C)(C)O1 (centres unmarked) [Compound 114],,10 to 100
CC1(C)CC(=C(c2ccc(N3CCC(CNC4CN(c5ccc6c(c5)CN(C5CCC(=O)NC5=O)C6=O)C4)CC3)nc2)c2ccc3[nH]nc(F)c3c2)CC(C)(C)O1 (centres unmarked) [Compound 57],,< 10

# Other lines, results leading:
GI50 (MCF-7 cells) [nM],DC50 (ERα) [nM],Compound
10 to 100,< 10,CC1(C)CC(=C(c2ccc(N3CCN(C4CN(c5ccc6c(c5)C(=O)N(C5CCC(=O)NC5=O)C6=O)C4)CC3)cc2)c2ccc3[nH]nc(F)c3c2)CC(C)(C)O1 (centres unmarked) [Compound 2]
> 100,> 100,CC1(C)CC(=C(c2ccc(N3CCC(CN4CCN(c5ccc(N6CCC(=O)NC6=O)cc5)CC4)CC3)nc2)c2ccc3[nH]nc(F)c3c2)CC(C)(C)O1 [Compound 77]
> 100,> 100,CC1(C)CC(=C(c2ccc(N3CCC(CN4CCN(c5ccc(NC6CCC(=O)NC6=O)cc5)CC4)CC3)nc2)c2ccc3[nH]nc(F)c3c2)CC(C)(C)O1 (centres unmarked) [Compound 88]
,10 to 100,CC1(C)CC(=C(c2ccc3[nH]nc(F)c3c2)c2c(F)cc(N3CCC(CN4CCN(c5ccc6c(c5)C(=O)N(C5CCC(=O)NC5=O)C6=O)CC4)CC3)cc2F)CC(C)(C)O1 (centres unmarked) [Compound 12]
,> 100,Cn1nc(N2CCC(=O)NC2=O)c2ccc(C3CCN(CC(=O)N4CCN(c5ccc(C(=C6CC(C)(C)OC(C)(C)C6)c6ccc7[nH]nc(F)c7c6)cn5)CC4)CC3(F)F)cc21 (centres unmarked) [Compound 93]
,> 100,CC1(C)CC(=C(c2ccc(N3CCN(CC4CN(c5ccc6c(c5)C(=O)N(C5CCC(=O)NC5=O)C6=O)C4)CC3)cc2)c2ccc3[nH]nc(F)c3c2)CC(C)(C)O1 (centres unmarked) [Compound 1]
,< 10,CC1(C)CC(=C(c2ccc(N3CCC(CN4CCN(c5ccc(C(=O)N[C@H]6CCC(=O)NC6=O)c(F)c5)CC4)CC3)nc2)c2ccc3[nH]nc(F)c3c2)CC(C)(C)O1 [Compound 122]
,> 100,CC1(C)CC(=C(c2ccc(OC3CCN(C4CCN(c5ccc6c(c5)CN(C5CCC(=O)NC5=O)C6=O)CC4)CC3)nc2)c2ccc3[nH]nc(F)c3c2)CC(C)(C)O1 (centres unmarked) [Compound 60]
,> 100,CC1(C)CC(=C(c2ccc(N3CCN(C4CN(c5ccc(N6CCC(=O)NC6=O)cc5)C4)CC3)cc2)c2ccc3[nH]nc(F)c3c2)CC(C)(C)O1 [Compound 82]
,> 100,CC1(C)CC(=C(c2ccc(N3CCC(N4CCN(c5ccc(N6CCC(=O)NC6=O)cc5)CC4)CC3)cc2)c2ccc3[nH]nc(F)c3c2)CC(C)(C)O1 [Compound 78]
,> 100,Cn1c(=O)n(C2CCC(=O)NC2=O)c2cccc(C#CCN3CCN(c4ccc(C(=C5CC(C)(C)OC(C)(C)C5)c5ccc6[nH]nc(F)c6c5)cn4)CC3)c21 (centres unmarked) [Compound 101]
,10 to 100,CC1(C)CC(=C(c2ccc(N3CCC(N4CCN(c5ccc6c(c5)CN([C@H]5CCC(=O)NC5=O)C6=O)CC4)CC3)cc2)c2ccc3[nH]nc(F)c3c2)CC(C)(C)O1 [Compound 135]
,> 100,CC1(C)CC(=C(c2ccc(N3CCC(CN4CCN(c5ccc6c(c5)C(=O)N(C5CCC(=O)NC5=O)C6)CC4)CC3)nc2)c2ccc3[nH]nc(F)c3c2)CC(C)(C)O1 (centres unmarked) [Compound 118]
,> 100,CC1(C)CC(=C(c2ccc(OC3CN(CC4CN(c5ccc6c(c5)C(=O)N(C5CCC(=O)NC5=O)C6=O)C4)C3)nc2)c2ccc3[nH]nc(F)c3c2)CC(C)(C)O1 (centres unmarked) [Compound 30]
,10 to 100,CC1(C)CC(=C(c2ccc3[nH]nc(F)c3c2)c2c(F)cc(OC3CN(CC4CCN(c5ccc6c(c5)C(=O)N(C5CCC(=O)NC5=O)C6=O)CC4)C3)cc2F)CC(C)(C)O1 (centres unmarked) [Compound 24]

# — patent publication EP4722209A1 (Beijing Shenogen Pharma Group, priority 2023, dated 2024)
